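At the GI50, growth is halved. TGI denotes the concentration required for complete inhibition of growth.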
How the values were obtained:
Experiment in all cases: inhibition of tumour cell growth, NCI panel, 384-well format
786-0 renal = test system: 786-0 renal
A549 NSCLC = test system: A549 NSCLC
BT-549 breast = test system: BT-549 breast
CAKI-1 renal = test system: CAKI-1 renal
CCRF-CEM leukemia = test system: CCRF-CEM leukemia
COLO 205 colon = test system: COLO 205 colon
EKVX NSCLC = test system: EKVX NSCLC
HCC-2998 colon = test system: HCC-2998 colon
HCT-116 colon = test system: HCT-116 colon
HCT-15 colon = test system: HCT-15 colon
HL-60(TB) leukemia = test system: HL-60(TB) leukemia
HOP-92 NSCLC = test system: HOP-92 NSCLC
HS 578T breast = test system: HS 578T breast
IGROV1 ovarian = test system: IGROV1 ovarian
K-562 leukemia = test system: K-562 leukemia
KM12 colon = test system: KM12 colon
LOX IMVI melanoma = test system: LOX IMVI melanoma
M14 melanoma = test system: M14 melanoma
MALME-3M melanoma = test system: MALME-3M melanoma
MCF7 breast = test system: MCF7 breast
MDA-MB-231 breast = test system: MDA-MB-231 breast
MDA-MB-435 melanoma = test system: MDA-MB-435 melanoma
MOLT-4 leukemia = test system: MOLT-4 leukemia
NCI-H226 lung = test system: NCI-H226 lung
NCI-H23 lung = test system: NCI-H23 lung
NCI-H322M lung = test system: NCI-H322M lung
NCI-H460 NSCLC = test system: NCI-H460 NSCLC
NCI-H522 lung = test system: NCI-H522 lung
NCI/ADR-RES ovarian = test system: NCI/ADR-RES ovarian
OVCAR-3 ovarian = test system: OVCAR-3 ovarian
OVCAR-4 ovarian = test system: OVCAR-4 ovarian
OVCAR-5 ovarian = test system: OVCAR-5 ovarian
OVCAR-8 ovarian = test system: OVCAR-8 ovarian
RPMI-8226 leukemia = test system: RPMI-8226 leukemia
SF-268 CNS = test system: SF-268 CNS
SF-295 CNS = test system: SF-295 CNS
SK-MEL-2 melanoma = test system: SK-MEL-2 melanoma
SK-MEL-5 melanoma = test system: SK-MEL-5 melanoma
SN12C renal = test system: SN12C renal
SNB-19 CNS = test system: SNB-19 CNS
SR leukemia = test system: SR leukemia
SW-620 colon = test system: SW-620 colon
TK-10 renal = test system: TK-10 renal
U251 glioblastoma = test system: U251 glioblastoma
UACC-257 melanoma = test system: UACC-257 melanoma
UACC-62 melanoma = test system: UACC-62 melanoma
UO-31 renal = test system: UO-31 renal

Compound: Cc1ccc(-c2nc(N)nc3c2nnn3Cc2cccc(CO[C@H]3CCOC3)n2)o1
- GI50 ([…]-0 renal): > 100 µM
- TGI (786-0 renal): > 100 µM
- GI50 (A549 NSCLC): > 100 µM
- TGI (A549 NSCLC): > 100 µM
- GI50 (BT-549 breast): > 100 µM
- TGI (BT-549 breast): > 100 µM
- GI50 (CAKI-1 renal): > 100 µM
- TGI (CAKI-1 renal): > 100 µM
- GI50 (CCRF-CEM leukemia): 72 µM
- TGI (CCRF-CEM leukemia): > 100 µM
- GI50 (COLO 205 colon): > 100 µM
- TGI (COLO 205 colon): > 100 µM
- GI50 (EKVX NSCLC): > 100 µM
- TGI (EKVX NSCLC): > 100 µM
- GI50 (HCC-2998 colon): > 100 µM
- TGI (HCC-2998 colon): > 100 µM
- GI50 (HCT-116 colon): > 100 µM
- TGI (HCT-116 colon): > 100 µM
- GI50 (HCT-15 colon): > 100 µM
- TGI (HCT-15 colon): > 100 µM
- GI50 (HL-60(TB) leukemia): > 64.3 µM
- TGI (HL-60(TB) leukemia): > 100 µM
- GI50 (HOP-92 NSCLC): > 100 µM
- TGI (HOP-92 NSCLC): > 100 µM
- GI50 (HS 578T breast): > 100 µM
- TGI (HS 578T breast): > 100 µM
- GI50 (IGROV1 ovarian): > 100 µM
- TGI (IGROV1 ovarian): > 100 µM
- GI50 (K-562 leukemia): 57.5 µM
- TGI (K-562 leukemia): > 100 µM
- GI50 (KM12 colon): > 100 µM
- TGI (KM12 colon): > 100 µM
- GI50 (LOX IMVI melanoma): > 100 µM
- TGI (LOX IMVI melanoma): > 100 µM
- GI50 (M14 melanoma): > 100 µM
- TGI (M14 melanoma): > 100 µM
- GI50 (MALME-3M melanoma): > 100 µM
- TGI (MALME-3M melanoma): > 100 µM
- GI50 (MCF7 breast): > 100 µM
- TGI (MCF7 breast): > 100 µM
- GI50 (MDA-MB-231 breast): 88.2 µM
- TGI (MDA-MB-231 breast): > 100 µM
- GI50 (MDA-MB-435 melanoma): > 100 µM
- TGI (MDA-MB-435 melanoma): > 100 µM
- GI50 (MOLT-4 leukemia): 42.2 µM
- TGI (MOLT-4 leukemia): > 100 µM
- GI50 (NCI-H226 lung): > 100 µM
- TGI (NCI-H226 lung): > 100 µM
- GI50 (NCI-H23 lung): > 100 µM
- TGI (NCI-H23 lung): > 100 µM
- GI50 (NCI-H322M lung): > 100 µM
- TGI (NCI-H322M lung): > 100 µM
- GI50 (NCI-H460 NSCLC): > 100 µM
- TGI (NCI-H460 NSCLC): > 100 µM
- GI50 (NCI-H522 lung): > 100 µM
- TGI (NCI-H522 lung): > 100 µM
- GI50 (NCI/ADR-RES ovarian): > 77.1 µM
- TGI (NCI/ADR-RES ovarian): > 100 µM
- GI50 (OVCAR-3 ovarian): > 100 µM
- TGI (OVCAR-3 ovarian): > 100 µM
- GI50 (OVCAR-4 ovarian): > 100 µM
- TGI (OVCAR-4 ovarian): > 100 µM
- GI50 (OVCAR-5 ovarian): > 100 µM
- TGI (OVCAR-5 ovarian): > 100 µM
- GI50 (OVCAR-8 ovarian): > 100 µM
- TGI (OVCAR-8 ovarian): > 100 µM
- GI50 (RPMI-8226 leukemia): 93.6 µM
- TGI (RPMI-8226 leukemia): > 100 µM
- GI50 (SF-268 CNS): > 100 µM
- TGI (SF-268 CNS): > 100 µM
- GI50 (SF-295 CNS): > 100 µM
- TGI (SF-295 CNS): > 100 µM
- GI50 (SK-MEL-2 melanoma): > 100 µM
- TGI (SK-MEL-2 melanoma): > 100 µM
- GI50 (SK-MEL-5 melanoma): > 53.9 µM
- TGI (SK-MEL-5 melanoma): > 100 µM
- GI50 (SN12C renal): > 100 µM
- TGI (SN12C renal): > 100 µM
- GI50 (SNB-19 CNS): > 100 µM
- TGI (SNB-19 CNS): > 100 µM
- GI50 (SR leukemia): > 73.2 µM
- TGI (SR leukemia): > 100 µM
- GI50 (SW-620 colon): > 100 µM
- TGI (SW-620 colon): > 100 µM
- GI50 (TK-10 renal): > 100 µM
- TGI (TK-10 renal): > 100 µM
- GI50 (U251 glioblastoma): > 100 µM
- TGI (U251 glioblastoma): > 100 µM
- GI50 (UACC-257 melanoma): > 100 µM
- TGI (UACC-257 melanoma): > 100 µM
- GI50 (UACC-62 melanoma): > 100 µM
- TGI (UACC-62 melanoma): > 100 µM
- GI50 (UO-31 renal): > 100 µM
- TGI (UO-31 renal): > 100 µM

Compound: Cc1cc(-c2nnc(N)nc2-c2ccc(F)cc2)cc(Cl)n1
- GI50 ([…]-0 renal): > 100 µM
- TGI (786-0 renal): > 100 µM
- GI50 (A549 NSCLC): > 100 µM
- TGI (A549 NSCLC): > 100 µM
- GI50 (BT-549 breast): 88.8 µM
- TGI (BT-549 breast): > 100 µM
- GI50 (CAKI-1 renal): > 91.5 µM
- TGI (CAKI-1 renal): > 100 µM
- GI50 (CCRF-CEM leukemia): 48.3 µM
- TGI (CCRF-CEM leukemia): > 100 µM
- GI50 (COLO 205 colon): > 100 µM
- TGI (COLO 205 colon): > 100 µM
- GI50 (EKVX NSCLC): 52.9 µM
- TGI (EKVX NSCLC): > 100 µM
- GI50 (HCC-2998 colon): > 100 µM
- TGI (HCC-2998 colon): > 100 µM
- GI50 (HCT-116 colon): 75.6 µM
- TGI (HCT-116 colon): > 100 µM
- GI50 (HCT-15 colon): > 100 µM
- TGI (HCT-15 colon): > 100 µM
- GI50 (HL-60(TB) leukemia): 36.5 µM
- TGI (HL-60(TB) leukemia): > 100 µM
- GI50 (HOP-92 NSCLC): > 50.9 µM
- TGI (HOP-92 NSCLC): > 100 µM
- GI50 (HS 578T breast): 62.8 µM
- TGI (HS 578T breast): > 100 µM
- GI50 (IGROV1 ovarian): > 90.4 µM
- TGI (IGROV1 ovarian): > 100 µM
- GI50 (K-562 leukemia): 37.8 µM
- TGI (K-562 leukemia): > 100 µM
- GI50 (KM12 colon): > 87.1 µM
- TGI (KM12 colon): > 100 µM
- GI50 (LOX IMVI melanoma): > 100 µM
- TGI (LOX IMVI melanoma): > 100 µM
- GI50 (M14 melanoma): > 100 µM
- TGI (M14 melanoma): > 100 µM
- GI50 (MALME-3M melanoma): > 100 µM
- TGI (MALME-3M melanoma): > 100 µM
- GI50 (MCF7 breast): > 100 µM
- TGI (MCF7 breast): > 100 µM
- GI50 (MDA-MB-231 breast): > 85.7 µM
- TGI (MDA-MB-231 breast): > 100 µM
- GI50 (MDA-MB-435 melanoma): > 100 µM
- TGI (MDA-MB-435 melanoma): > 100 µM
- GI50 (MOLT-4 leukemia): 30.5 µM
- TGI (MOLT-4 leukemia): > 90.8 µM
- GI50 (NCI-H226 lung): > 100 µM
- TGI (NCI-H226 lung): > 100 µM
- GI50 (NCI-H23 lung): 32.5 µM
- TGI (NCI-H23 lung): > 100 µM
- GI50 (NCI-H322M lung): > 100 µM
- TGI (NCI-H322M lung): > 100 µM
- GI50 (NCI-H460 NSCLC): > 89.7 µM
- TGI (NCI-H460 NSCLC): > 100 µM
- GI50 (NCI-H522 lung): 42.9 µM
- TGI (NCI-H522 lung): > 100 µM
- GI50 (NCI/ADR-RES ovarian): 25.3 µM
- TGI (NCI/ADR-RES ovarian): 86.3 µM
- GI50 (OVCAR-3 ovarian): > 81.9 µM
- TGI (OVCAR-3 ovarian): > 100 µM
- GI50 (OVCAR-4 ovarian): > 91.2 µM
- TGI (OVCAR-4 ovarian): > 100 µM
- GI50 (OVCAR-5 ovarian): > 100 µM
- TGI (OVCAR-5 ovarian): > 100 µM
- GI50 (OVCAR-8 ovarian): > 92.6 µM
- TGI (OVCAR-8 ovarian): > 100 µM
- GI50 (RPMI-8226 leukemia): 20.3 µM
- TGI (RPMI-8226 leukemia): > 61.2 µM
- GI50 (SF-268 CNS): > 100 µM
- TGI (SF-268 CNS): > 100 µM
- GI50 (SF-295 CNS): > 84.4 µM
- TGI (SF-295 CNS): > 100 µM
- GI50 (SK-MEL-2 melanoma): > 100 µM
- TGI (SK-MEL-2 melanoma): > 100 µM
- GI50 (SK-MEL-5 melanoma): 88 µM
- TGI (SK-MEL-5 melanoma): > 100 µM
- GI50 (SN12C renal): > 100 µM
- TGI (SN12C renal): > 100 µM
- GI50 (SNB-19 CNS): > 100 µM
- TGI (SNB-19 CNS): > 100 µM
- GI50 (SR leukemia): 33.9 µM
- TGI (SR leukemia): > 100 µM
- GI50 (SW-620 colon): > 81.1 µM
- TGI (SW-620 colon): > 100 µM
- GI50 (TK-10 renal): 44.3 µM
- TGI (TK-10 renal): > 100 µM
- GI50 (U251 glioblastoma): > 75.5 µM
- TGI (U251 glioblastoma): > 100 µM
- GI50 (UACC-257 melanoma): 66.5 µM
- TGI (UACC-257 melanoma): > 100 µM
- GI50 (UACC-62 melanoma): 75.7 µM
- TGI (UACC-62 melanoma): > 100 µM
- GI50 (UO-31 renal): 88.6 µM
- TGI (UO-31 renal): > 100 µM

Source: PubChem BioAssay (NCI)
